From the OligoGym collection
“And” between values parts separate entries of the source, which are not always exact repeats. Equal values may be shown once. After the bases stand the sugars from the 5' end (letter, count) and the backbone: PS all phosphorothioate, else s phosphorothioate and o phosphodiester by linkage. Methylation of C is not given here. l = locked nucleic acid (LNA); d = 2'-deoxy (DNA)

Experiments:
[1] = target: MYH7; details: ASO, CC-2580, 5 µM
[2] = target: ANGPTL2; details: ASO

Question: Which target mRNA inhibition [1] does the source give for “TCAGCTTGGCGATGATCT (sugars lddldlddddddldllll, PS)” here?
Answer: 25% and 12%

Question: How did the target mRNA inhibition [1] turn out when “CAGCTTGGCGATGATCT (sugars ldldlddlddddddlll, PS)” was run?
Answer: 18% and 3%

Question: How did the target mRNA inhibition [1] turn out when “CAGCTTGGCGATGATCT (sugars llddddddddldlddll, PS)” was run?
Answer: 26% and 5%

Question: Which target mRNA inhibition [1] does the source give for “CAGCTTGGCGATGATCT (sugars lddlddldddddldlll, PS)” here?
Answer: -32% and -42%

Question: “CAGCTTGGCGATGATCT (sugars lddlddldlldddddll, PS)” was tested. Which target mRNA inhibition [1] did it give?
Answer: -27% and -45%

Question: For “CTTGGCAATGATCTCATCC (sugars llldddddddlddldldll, PS)”, which target mRNA inhibition [1] is on record?
Answer: 60% and 35%

Question: With “TCAGCTTGGCGATGATCT (sugars lldldddddddddldlll, PS)” as the sequence, how does the target mRNA inhibition [1] read?
Answer: 59% and 40%

Question: With “CAGCTTGGCGATGATCT (sugars lddlddddddddlddll, PS)” as the sequence, how does the target mRNA inhibition [1] read?
Answer: 35% and 18%

Question: “CAGCTTGGCGATGATCT (sugars ldldlddddddldldll, PS)” was tested. Which target mRNA inhibition [1] did it give?
Answer: 5% and -12%

Question: Which target mRNA inhibition [1] does the source give for “CTTGGCAATGATCTCATCC (sugars lldddddddldddlddlll, PS)” here?
Answer: 54% and 31%

Question: With “TCAGCTTGGCGATGATCT (sugars llddldddddddldldll, PS)” as the sequence, how does the target mRNA inhibition [1] read?
Answer: 14% and 0%

Question: Which target mRNA inhibition [1] does the source give for “CAGCTTGGCGATGATCT (sugars l2 d8 l3 d2 l2, PS)” here?
Answer: 39% and 30%

Question: Which target mRNA inhibition [1] does the source give for “TCAGCTTGGCGATGATCT (sugars ldldlddddddldlddll, PS)” here?
Answer: -4% and -12%

Question: What does the source list for GATGATGCGGTTGTAG (sugars l4 d10 l2, PS)?
Answer: target mRNA inhibition ([2]; 5 µM): 70%; target mRNA inhibition ([2]; 25 µM): 75.2%

Question: How did the target mRNA inhibition ([2]; 5 µM) turn out when “AGATGAATATAGTTCTC (sugars l4 d10 l3, PS)” was run?
Answer: 55.3%

Question: What about the target mRNA inhibition ([2]; 25 µM) of the same sequence?
Answer: 65.9%

Question: “CAGGCCAACACTAACTCG (sugars l1 d14 l3, PS)” was tested. Which target mRNA inhibition ([2]; 5 µM) did it give?
Answer: 73.4%

Question: And the target mRNA inhibition ([2]; 25 µM)?
Answer: 84.2%

Question: What does the source list for “CAGGCGTCTCTGGATGA (sugars l1 d14 l2, PS)”?
Answer: target mRNA inhibition ([2]; 5 µM): 17.4%; target mRNA inhibition ([2]; 25 µM): 10.6%

Question: With “TTTTGAGATTCCCCCAAA (sugars l1 d13 l4, PS)” as the sequence, how does the target mRNA inhibition ([2]; 5 µM) read?
Answer: 24.8%

Question: And the target mRNA inhibition ([2]; 25 µM)?
Answer: 24.7%

Question: Which target mRNA inhibition ([2]; 5 µM) does the source give for “AATTACTCCACACTTTCA (sugars l3 d12 l3, PS)” here?
Answer: 55.7%

Question: What about the target mRNA inhibition ([2]; 25 µM) of the same sequence?
Answer: 61.6%

Question: For “AACCATTTTGAGATTCCCC (sugars l1 d16 l2, PS)”, which target mRNA inhibition ([2]; 5 µM) is on record?
Answer: 28.5%

Question: And the target mRNA inhibition ([2]; 25 µM)?
Answer: 17.6%

Question: How did the target mRNA inhibition ([2]; 5 µM) turn out when “AAGTTGATAGTTTATCTCCT (sugars l2 d16 l2, PS)” was run?
Answer: 60.9%

Question: And the target mRNA inhibition ([2]; 25 µM)?
Answer: 72%

Question: With “CCAGTTCCTGAAGAAGTT (sugars l2 d14 l2, PS)” as the sequence, how does the target mRNA inhibition ([2]; 5 µM) read?
Answer: 16.3%

Question: And the target mRNA inhibition ([2]; 25 µM)?
Answer: 16.7%

Question: For “ATTTACTGTCTGCCCAG (sugars l2 d12 l3, PS)”, which target mRNA inhibition ([2]; 5 µM) is on record?
Answer: 54.6%

Question: What about the target mRNA inhibition ([2]; 25 µM) of the same sequence?
Answer: 59.5%

Question: Which results are given for “GACTAACTGTTGAAATTG (sugars l3 d11 l4, PS)”?
Answer: target mRNA inhibition ([2]; 5 µM): 26.9%; target mRNA inhibition ([2]; 25 µM): 30.8%

Question: With “TGGTTGATGATGCGGTTGTA (sugars l1 d17 l2, PS)” as the sequence, how does the target mRNA inhibition ([2]; 5 µM) read?
Answer: 48%

Question: What about the target mRNA inhibition ([2]; 25 µM) of the same sequence?
Answer: 53%

Question: For “ATTTTGAGATTCCCCCAA (sugars l1 d14 l3, PS)”, which target mRNA inhibition ([2]; 5 µM) is on record?
Answer: 3.44%

Question: And the target mRNA inhibition ([2]; 25 µM)?
Answer: 20.9%

Question: With ATAACGCCCACTGAGA (sugars l1 d11 l4, PS) as the sequence, how does the target mRNA inhibition ([2]; 5 µM) read?
Answer: 24.4%

Question: What about the target mRNA inhibition ([2]; 25 µM) of the same sequence?
Answer: 39.7%

Question: “ACATAATGTTTCATGCT (sugars l4 d11 l2, PS)” was tested. Which target mRNA inhibition ([2]; 5 µM) did it give?
Answer: 46%

Question: And the target mRNA inhibition ([2]; 25 µM)?
Answer: 45.8%

Question: What does the source list for GAGTTCATGTTGCGGC (sugars l1 d13 l2, PS)?
Answer: target mRNA inhibition ([2]; 5 µM): 21.4%; target mRNA inhibition ([2]; 25 µM): 24.9%

Question: ACAACTCACATTCATAG (sugars l4 d9 l4, PS) was tested. Which target mRNA inhibition ([2]; 5 µM) did it give?
Answer: 49%

Question: What about the target mRNA inhibition ([2]; 25 µM) of the same sequence?
Answer: 54.7%

Question: Which results are given for ATAGCAGGGAGTGACC (sugars l2 d12 l2, PS)?
Answer: target mRNA inhibition ([2]; 5 µM): 8.4%; target mRNA inhibition ([2]; 25 µM): 26.5%

Question: “GCAGCTCATTGTTGAGC (sugars l1 d14 l2, PS)” was tested. Which target mRNA inhibition ([2]; 5 µM) did it give?
Answer: 8.7%

Question: What does the source list for “ATCTGGTTGATGATGCGG (sugars l2 d14 l2, PS)”?
Answer: target mRNA inhibition ([2]; 5 µM): 75.2%; target mRNA inhibition ([2]; 25 µM): 82.3%

Question: With “AGTGAGAGGAAGTCAGGG (sugars l1 d15 l2, PS)” as the sequence, how does the target mRNA inhibition ([2]; 5 µM) read?
Answer: 39.6%

Question: And the target mRNA inhibition ([2]; 25 µM)?
Answer: 46.3%

Question: Which results are given for “GTTGATGATGCGGTTGTA (sugars l1 d15 l2, PS)”?
Answer: target mRNA inhibition ([2]; 5 µM): 44.2%; target mRNA inhibition ([2]; 25 µM): 53.9%
